The supplement of paper PMC10307832

Assays:
Test in all cases: relative viability (nuclei count vs DMSO), 5 days (fraction); higher = more cells survive
[1] = compound: C#Cc1cccc(Nc2ncnc3cc(OC)c(OCCCCCCC(=O)NO)cc23)c1 [CUDC-101] + CC1(C)CCC(c2ccc(Cl)cc2)=C(CN2CCN(c3ccc(C(=O)NS(=O)(=O)c4ccc(N[C@H](CCN5CCOCC5)CSc5ccccc5)c(S(=O)(=O)C(F)(F)F)c4)cc3)CC2)C1 [Navitoclax] (partner 0.5 µM)
In short: (§1)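 Nuclei were stained with Hoechst during a one-step fixation (final 0.05% Triton X-100, 1% formaldehyde, 1 ug/ml Hoechst) carried out 5 days after dosing, then counted on 4× images. The cells, lung cancer lines in 1536-well plates, had been dosed by pin tool the day after seeding with one drug alone or a fixed anchor-drug dose plus five library-drug doses (not always all listed) in √10 steps. Relative viability is the nuclei count in treated wells divided by that in vehicle wells, and each value is the median of duplicate plates.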

[2] = compound: C1=CC=C2C(=C1)N=C(S2)C(C#N)C3=NC(=NC=C3)NCCC4=CN=CC=C4 + CCNC(=O)c1noc(-c2cc(C(C)C)c(O)cc2O)c1-c1ccc(CN2CCOCC2)cc1 [Luminespib] (partner 0.01 µM)
In short: as §1

[3] = compound: COc1cc2/c(=N/c3ccc(Br)cc3F)nc[nH]c2cc1OCC1CCN(C)CC1 [Vandetanib] + CC(C)C[C@H](NC(=O)[C@H](Cc1ccccc1)NC(=O)c1cnccn1)B(O)O [Bortezomib] (partner 0.002 µM)
In short: as §1

[4] = compound: COc1cc2/c(=N/c3ccc(Br)cc3F)nc[nH]c2cc1OCC1CCN(C)CC1 [Vandetanib] + CC1(C)CCC(c2ccc(Cl)cc2)=C(CN2CCN(c3ccc(C(=O)NS(=O)(=O)c4ccc(N[C@H](CCN5CCOCC5)CSc5ccccc5)c(S(=O)(=O)C(F)(F)F)c4)cc3)CC2)C1 [Navitoclax] (partner 0.5 µM)
In short: as §1

| Cell Line | relative viability ([1]; first compound 0.01 µM) | relative viability ([1]; first compound 0.03162 µM) | relative viability ([1]; first compound 0.1 µM) | relative viability ([1]; first compound 0.3162 µM) | relative viability ([1]; first compound 1 µM) | relative viability ([2]; first compound 0.005 µM) | relative viability ([2]; first compound 0.01581 µM) | relative viability ([2]; first compound 0.05 µM) | relative viability ([2]; first compound 0.1581 µM) | relative viability ([2]; first compound 0.5 µM) | relative viability ([3]; first compound 0.02 µM) | relative viability ([3]; first compound 0.06325 µM) | relative viability ([3]; first compound 0.2 µM) | relative viability ([3]; first compound 0.6325 µM) | relative viability ([3]; first compound 2 µM) | relative viability ([4]; first compound 0.02 µM) | relative viability ([4]; first compound 0.06325 µM) | relative viability ([4]; first compound 0.2 µM) | relative viability ([4]; first compound 0.6325 µM) | relative viability ([4]; first compound 2 µM) |
| --- | --- | --- | --- | --- | --- | --- | --- | --- | --- | --- | --- | --- | --- | --- | --- | --- | --- | --- | --- | --- |
| NCI-H596 | 1.06 | 0.825 | 0.942 | 0.938 | 0.866 | 0.627 | 1.02 | 0.875 | 1.07 | 0.764 | 0.998 | 1 | 0.965 | 0.717 | 0.958 | 0.942 | 0.976 | 1.05 | 0.94 | 0.795 |
| NCI-H2009 | 1.23 | 1.05 | 1.18 | 1.16 | 1.1 | 1.1 | 1.09 | 1.05 | 1.07 | 1.05 | 0.895 | 0.931 | 1.06 | 0.996 | 1.21 | 1.12 | 1.15 | 1.24 | 1.19 | 1.11 |
| LU99A | 0.857 | 1.07 | 0.728 | 0.642 | 0.159 | 0.188 | 0.254 | 0.262 | 0.268 | 0.274 | 1.14 | 1.22 | 1.11 | 1.07 | 1.07 | 0.794 | 0.73 | 0.734 | 0.679 | 0.761 |
| PC-3 [JPC-3] | 0.776 | 0.749 | 0.506 | 0.613 | 0.342 | 0.681 | 0.71 | 0.693 | 0.724 | 0.561 | 0.828 | 0.738 | 0.646 | 0.734 | 0.431 | 0.783 | 0.738 | 0.777 | 0.719 | 0.451 |
| HCC-44 | 0.836 | 0.933 | 0.877 | 1.06 | 0.827 | 0.988 | – | 1.03 | 1.05 | 0.951 | 0.866 | 0.884 | 0.951 | 0.958 | 0.89 | 1.05 | 1.02 | 0.93 | 0.976 | 0.947 |
| H3255 | 0.688 | 0.435 | 0.174 | 0.126 | 0.0597 | 0.779 | 0.884 | 0.916 | 1.11 | 0.944 | 0.972 | 0.71 | 0.632 | 0.367 | 0.233 | 0.5 | 0.421 | 0.332 | 0.161 | 0.108 |
| LXF-289 | 0.952 | 0.966 | 0.911 | 0.932 | 0.753 | 0.544 | 0.74 | 0.661 | 0.875 | 0.677 | 0.999 | 0.895 | 0.932 | 1.04 | 0.986 | 0.94 | 0.921 | 1 | 0.937 | 0.934 |
| PC-14 | 1.08 | 1.05 | 1.06 | 0.754 | 0.265 | 0.197 | – | 0.117 | 0.119 | 0.155 | 1.03 | 0.939 | 1.05 | 0.295 | 0.258 | 1.02 | 0.953 | 1.07 | 0.504 | 0.307 |
| EKVX | 0.972 | 0.977 | 0.874 | 0.941 | 0.593 | 0.953 | 0.837 | 0.868 | 0.673 | 0.842 | 1.09 | 0.998 | 1.03 | 0.796 | 0.666 | 0.934 | 0.869 | 0.882 | 0.753 | 0.806 |
| NCI-H322M | 1.21 | 1.18 | 0.954 | 1.08 | 0.795 | 0.646 | 0.829 | 0.88 | 0.933 | 0.932 | 1.18 | 1.13 | 1.18 | 1.13 | 1.12 | 1.14 | 1.1 | 1.24 | 1.04 | 1.15 |
| NCI-H1355 | 1.01 | 0.735 | 0.939 | 0.825 | 0.73 | 0.618 | 0.832 | 0.765 | 0.763 | 0.568 | 1.22 | 1.18 | 1.16 | 1.22 | 1.27 | 0.931 | 0.809 | 0.577 | 1.01 | 1.03 |
| ChaGo-K-1 | 1.34 | 1.48 | 1.04 | 1.06 | 0.92 | – | 0.678 | 0.594 | 0.693 | 0.67 | 1.11 | 0.985 | 0.593 | 0.887 | 0.567 | 0.939 | 0.998 | 0.942 | 1.24 | 0.489 |
| NCI-H2126 | 0.889 | 0.86 | 0.852 | 0.815 | 0.649 | 0.561 | 0.87 | 0.73 | 0.997 | 0.836 | 1.09 | 1.07 | 1.06 | 1.08 | 1.06 | 0.865 | 0.859 | 0.84 | 0.866 | 0.727 |
| NCI-H520 | 1.04 | – | 1.03 | 0.987 | 0.316 | 0.237 | 0.201 | 0.214 | 0.224 | 0.198 | 0.608 | 0.623 | 0.527 | 0.45 | 0.569 | 0.946 | 1.04 | 1.08 | 1.07 | 1.04 |
| NCI-H1755 | 0.984 | 1.01 | 0.995 | 1.02 | 0.951 | 0.458 | 0.406 | 0.262 | 0.576 | 0.61 | 0.998 | 1.04 | 1.07 | 1 | 0.959 | 1.03 | 0.979 | 0.968 | 0.973 | 0.972 |
| NCI-H1650 | 1.22 | 0.967 | 1.28 | 1.1 | 0.85 | 0.171 | 0.191 | 0.176 | 0.204 | 0.2 | 0.253 | 0.21 | – | 0.209 | 0.195 | 1.15 | 1.02 | – | 1.1 | 1.13 |
| NCI-H2228 | 0.941 | 0.646 | 0.607 | 1.11 | 0.846 | 0.146 | 0.117 | 0.153 | 0.163 | 0.142 | 0.775 | 0.942 | – | 1.03 | 0.814 | 0.917 | 0.482 | – | 0.938 | 0.695 |
| NCI-H2347 | 0.88 | 0.797 | 0.751 | 0.937 | 0.783 | 0.811 | 0.355 | 0.381 | 0.488 | 0.363 | 0.878 | – | 0.896 | 0.956 | 0.969 | 0.878 | 0.453 | 0.834 | 0.945 | 0.708 |
| HCC-15 | 0.689 | 0.69 | 0.762 | 0.678 | 0.566 | 0.478 | 0.255 | 0.237 | 0.354 | 0.27 | 1.03 | 0.962 | 0.956 | 1.08 | 1.08 | 0.685 | 0.702 | 0.682 | 0.756 | 0.649 |
| NCI-H23 | 0.801 | 0.796 | 0.817 | 0.849 | 0.791 | 0.211 | – | 0.204 | 0.225 | 0.215 | 1 | 0.944 | 1.06 | 0.785 | 0.884 | 0.782 | 0.8 | 0.769 | 0.914 | 0.688 |
| LC-2-ad | 0.462 | 0.475 | 0.49 | 0.517 | 0.196 | 0.807 | 1.06 | 0.965 | 1.17 | 0.91 | 0.708 | 0.984 | 0.769 | 0.884 | 0.322 | 0.44 | 0.482 | 0.548 | 0.403 | 0.243 |
| LCLC-97TM1 | 0.416 | 0.304 | 0.593 | 0.377 | 0.306 | 0.748 | 0.896 | 0.795 | 0.947 | 0.685 | 0.827 | 0.641 | 0.771 | 0.566 | 0.558 | 0.399 | 0.556 | 0.345 | 0.403 | 0.411 |
| HOP-62 | 1.17 | 0.954 | 1.02 | 1.02 | 1.01 | 0.749 | 0.948 | 0.861 | 0.973 | 0.898 | 0.624 | 0.667 | 0.847 | 0.918 | 0.663 | 0.975 | 1.07 | 0.999 | 1.18 | 1.01 |
| NCI-H2085 | 1.11 | 1.26 | 1.18 | 1.16 | 1.02 | 0.439 | 0.368 | 0.4 | 0.388 | 0.413 | 1.08 | 1.02 | 1.02 | 1.09 | 1.04 | 1.23 | 1.07 | 1.12 | 1.03 | 1 |
| NCI-H2087 | 0.945 | 1.07 | 1.04 | 0.98 | 0.727 | 0.163 | 0.159 | 0.222 | 0.2 | 0.15 | 0.813 | 0.761 | 0.859 | 0.857 | 0.833 | 1.02 | 0.832 | 0.948 | 1.16 | 1.08 |
| COR-L 105 | 0.866 | 0.755 | 0.739 | 0.64 | 0.264 | 0.782 | 0.848 | 0.85 | 0.826 | 0.657 | 0.827 | 0.661 | 0.851 | 0.474 | 0.388 | 0.833 | 0.888 | 0.826 | 0.804 | 0.353 |
| CAL-12T | 1.22 | 1.23 | 1.28 | 1.35 | 1.33 | 0.371 | 0.361 | 0.422 | 0.435 | 0.235 | 1.03 | 1.13 | 0.865 | 0.82 | 0.537 | 1.22 | 1.19 | 1.37 | 1.28 | 1.13 |
